Experimental data as given in patent US20220071952A1, “METHODS OF TREATING AND PREVENTING HEPATOTOXICITY” (Natreon, Inc., priority 2020, published 2022).
Where “and” joins values, the source holds several entries; their conditions need not be identical. Equal entries are not always repeated.

System: CCl4-induced hepatotoxicity in mice
Test: Carbon tetrachloride (CCl4)-induced hepatotoxicity in mice, serum biochemical parameters (Example II)
Type: in vivo, Swiss albino mice
Conditions: for effect on CCl4-induced hepatotoxicity (ALT, AST, bilirubin, total protein vs CCl4 group) / effect on CCl4-induced lipid peroxidation (MDA): mice; for ALT / AST / MDA / Total Bilirubin / Total Protein: 10 mg/kg p.o. 7 days + CCl4 (30%) 1 ml/kg i.p., serum, mean ± SD, n=6; for hepatoprotective activity against carbon tetrachloride-induced liver damage: males and females
Experimental: Swiss albino mice of both sexes, weighing approximately 25-30 g, were obtained from National Research Institute of Ayurveda for Drug Development (Govt. of India), Kolkata, and were housed in polypropylene cages at 22±3° C., relative air humidity of 45 to 55%, with 12.00 hr light and dark cycle (lighting on from 6:00 AM to 6:00 PM) and were provided standard pellet chow (carbohydrate 65.5%, protein 17.6%, fat 6.6%) and distilled water ad libitum. The mice were acclimatized for one week in the laboratory conditions before being used in the experiment. All experiments were conducted between 10.00 hr and 14.00 hr. Principles of laboratory animals care (NIH publication no. 85-23, revised 1985) were followed.

With `O=c1oc2cc(O)ccc2c2ccc(O)cc12` [3,8-(OH)2-DBP, 3,8-dihydroxy-dibenzo-alpha-pyrone] the “effect on CCl4-induced hepatotoxicity (ALT, AST, bilirubin, total protein vs CCl4 group)” value (10 mg/kg p.o.) was “significantly attenuated and reversed the CCl4-induced hepatotoxicity”, the “effect on CCl4-induced lipid peroxidation (MDA)” value (10 mg/kg p.o.) was “significantly lowered CCl4-induced lipid peroxidation” and the ALT (female mice) was 60.99 ± 13.49 IU/L. The AST (female mice) was 12.95 ± 2.46 IU/L, the MDA (female mice) was 6.53 ± 0.66 nmol/mL and the “Total Bilirubin” value (female mice) was 0.60 ± 0.18 mg/dL. For the same compound, the Total Protein (female mice) was 4.02 ± 0.3 g/dL, the “hepatoprotective activity against carbon tetrachloride-induced liver damage, in comparison to 3-OH-DBP” value (females, 10 mg/kg p.o.) was “better hepatoprotective activity” and the ALT (male mice) was 64.78 ± 4.65 IU/L. For the same compound, the AST (male mice) was 13.04 ± 3.74 IU/L, the “Total Bilirubin” value (male mice) was 0.48 ± 0.14 mg/dL and the “Total Protein” value (male mice) was 0.00412 ± 0.00086 g/dL. The MDA (male mice, 10 mg/kg) was 6.59 nmol/mL and 6.59 ± 0.82 nmol/mL and the “hepatoprotective activity against carbon tetrachloride-induced liver damage” value (10 mg/kg p.o.) was “significant hepatoprotective activity”.

For `O=c1oc2cc(O)ccc2c2ccccc12` [3-OH-DBP, 3-hydroxy-dibenzo-alpha-pyrone], the “effect on CCl4-induced hepatotoxicity (ALT, AST, bilirubin, total protein vs CCl4 group)” value (10 mg/kg p.o.) was “significantly attenuated and reversed the CCl4-induced hepatotoxicity”, the “effect on CCl4-induced lipid peroxidation (MDA)” value (10 mg/kg p.o.) was “significantly lowered CCl4-induced lipid peroxidation” and the ALT (female mice) was 67.34 ± 12.07 IU/L. For the same compound, the AST (female mice) was 17.48 ± 5.67 IU/L, the MDA (female mice) was 8.13 ± 0.167 nmol/mL and the “Total Bilirubin” value (female mice) was 0.53 ± 0.21 mg/dL. For the same compound, the Total Protein (female mice) was 3.92 ± 0.88 g/dL, the ALT (male mice) was 58.21 ± 6.79 IU/L and the AST (male mice) was 12.33 ± 3.29 IU/L. For the same compound, the “Total Bilirubin” value (male mice) was 0.50 ± 0.23 mg/dL, the “Total Protein” value (male mice) was 0.00355 ± 0.00031 g/dL and the MDA (male mice, 10 mg/kg) was 7.04 nmol/mL and 7.04 ± 0.09 nmol/mL. For the same compound, the “hepatoprotective activity against carbon tetrachloride-induced liver damage” value (10 mg/kg p.o.) was “significant hepatoprotective activity”.
